Among the data in PubChem BioAssay AID504322 (Emory University Molecular Libraries Screening Center, 2011) are IC50 values, retold here.

This assay concerns CHOP reporter cell assay, percent of control. In words: CHOP reporter inhibitor potency, dose response, cell-based (AID 504322).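 Also: CHO cells carrying a CHOP reporter stimulated with tunicamycin to induce ER stress; potency is for inhibition of the stress-induced reporter signal.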

Active and inactive are the calls of the source. No rule for the calls is given here.

Consider `Cc1cc(C)c2c(c1)/C(=N/NS(=O)(=O)c1ccc(Br)cc1)CCC2`, for which the IC50 (commonly the concentration at which inhibition is half-maximal) is 9.49 µM (inactive).

Turning to `Cc1cccc(/C=N/Nc2ccc3ccccc3n2)c1`, the IC50 was > 10 µM (inactive).

With `CCOc1cc(NC(=O)CCl)c(OCC)cc1NC(=O)CCl`, the IC50 was > 10 µM (inactive).

Consider `Nc1nc(-c2ccccc2)c(N=Nc2ccccc2Cl)s1`, for which the IC50 is 8.65 µM (inactive).

For the molecule `O=C(CCl)Nc1cccc(-c2cnc3ccccc3n2)c1`, the IC50 is 6.64 µM (inactive).

For `C=C1C(=O)O[C@@H]2C[C@@H](C)[C@@H]3C=CC(=O)[C@@]3(C)[C@@H](OC(C)=O)[C@H]12`, the half-maximal inhibitory concentration (IC50) was 2.48 µM.

Consider `Cc1cc(C)c(S(=O)(=O)NCCn2c(C)cc3ccccc32)c(C)c1`, for which the IC50 is 9.61 µM (inactive).

On to `COc1ccc(CCNC(=O)c2nnn(-c3ccc4c(c3)OCCO4)c2N)cc1OC`, for which the IC50 was 0.69 µM.

For `COc1ccccc1-c1cc(C(F)(F)F)nc(S(=O)(=O)CCCC(=O)Nc2cccnc2Cl)n1`, the IC50 was > 10 µM (inactive).

For `Cc1ccc(N2C(=O)NC(=O)/C(=C\C=C\c3ccco3)C2=O)cc1`, the IC50 is 9.55 µM (inactive).

As to `FC(F)(F)c1nnc(-c2ccccc2)nc1Sc1ccc(Cl)cc1`, the IC50 is > 10 µM (inactive).

Take `COC(=O)c1cc(NC(=S)Nc2cc(Cl)cc(Cl)c2)cc(C(=O)OC)c1`: the IC50 is > 10 µM (inactive).

Turning to `O=C(Nc1ccc(Oc2ccccc2)cc1)C1CCN(c2c3c(nc4ncnn24)CCC3)CC1`, the IC50 was > 10 µM (inactive).

Regarding `CC(C)(C)c1ccc(OCCNC(=S)Nc2ccccc2)cc1`, the IC50 was > 10 µM (inactive).

For `CCOc1ccc(N(CC(=O)Nc2cccc(Cl)c2)S(=O)(=O)c2c(C)noc2C)cc1`, the half-maximal inhibitory concentration (IC50) was 2.02 µM.

As for `CCCCCCNC(=O)CC(c1ccccc1)c1cc(Br)ccc1O` (stereo not given), the IC50 was 3.52 µM.

As for `CCOc1cc(S(=O)(=O)Nc2ccc(CC)cc2)ccc1Cl`, the IC50 was 4.48 µM (inactive).

Consider `Nc1c(C(=O)Nc2ccccc2F)sc2nc(-c3cccnc3)ccc12`, for which the IC50 is > 10 µM (inactive).

`Cc1cc(/C=c2/sc3nc4ccccc4n3c2=O)c(C)n1-c1ccccn1`: the IC50 is below 0.16 µM.

In the case of `O=C(CCl)Nc1ccc(Sc2ccc(NC(=O)CCl)cc2)cc1`, the 50% inhibitory concentration (IC50) is 4.97 µM.

On to `Cc1ccc(C(=O)CC(=O)c2cc(Cl)ccc2O)cc1`, for which the IC50 is 5.51 µM (inactive).

With `CCCOC(=O)c1ccc(Oc2c(-c3ccc(OCC)cc3O)n[nH]c2C)cc1`, the concentration for half-maximal inhibition (IC50) is 2.34 µM.

With `O=C(/C=C/c1cccc([N+](=O)[O-])c1)n1cnc2ccccc21`, the IC50 is 5.36 µM (inactive).

`Oc1ccc(/C=N/Nc2nc(N3CCCCCC3)nc(N3CCCCCC3)n2)c(O)c1`: the IC50 was 9.82 µM (inactive).

With `O=[N+]([O-])c1ccc(-c2nn(-c3ccccc3)cc2/C=N/n2c(-c3cccs3)n[nH]c2=S)cc1`, the IC50 is > 10 µM (inactive).

With `COc1ccc(/C=C2/SC(=S)N(CCCC(=O)Nc3ccc(O)cc3)C2=O)cc1`, the IC50 is 0.25 µM.

As for `CCn1c(C)nc2cc(-c3nnc(-c4c(-c5ccccc5)noc4C)o3)ccc21`, the IC50 was 8.88 µM (inactive).

For `Cc1ccccc1N1CCN(C(=O)c2ccc(Oc3ccc(C(F)(F)F)cn3)cc2)CC1`, the IC50 was 3.48 µM (inactive).

For the molecule `Cc1cc(Cl)ccc1OCC(=O)N[C@@H](Cc1ccccc1)c1nc2ccccc2[nH]1`, the IC50 was 9.23 µM (inactive).

As to `O=S(=O)(C/C(=C/CO)S(=O)(=O)c1ccccc1)c1ccccc1`, the IC50 is > 10 µM (inactive).

For `CCc1ccc(OCC(=O)NC(NC(=S)Nc2ccc(Cl)cc2)C(Cl)(Cl)Cl)cc1` (stereo not given), the IC50 was 5.13 µM (inactive).

Turning to `CC1(c2ccccc2)CC(C)(C)n2c(O)c(C3=NC(=S)NC3=O)c3cccc1c32` (stereo not given), the IC50 is 9.76 µM (inactive).

As to `CCOc1cc(/C=N\NC(=O)Cc2ccccc2)ccc1OCC(=O)Nc1ccc(C)c(C)c1`, the IC50 is 6.38 µM (inactive).

`O=Nc1ccc(O)c2ncccc12`: the IC50 was 8.83 µM (inactive).

Consider `COc1ccc2c3c(cccc13)C(=O)N(O)C2=O`, for which the IC50 was 2.57 µM.

For the molecule `CCC(C)c1ccc(O)c(NC(=O)c2cncc(Br)c2)c1` (stereo not given), the IC50 is 6.67 µM (inactive).

Regarding `CC1(C)C[C@H]2C=C(C=O)[C@]3(C=O)C[C@]3(C)[C@H]2C1`, the IC50 is 0.85 µM.

Consider `C=CCn1c(SCC(=O)c2[nH]c(C)c(C(=O)OC)c2C)nc2scc(-c3ccc(OC)c(OC)c3)c2c1=O`, for which the IC50 is 6.22 µM (inactive).

As to `CCCCCCOC(=O)Nc1ccc(S(=O)(=O)Nc2cccc([N+](=O)[O-])c2)cc1`, the IC50 is > 10 µM (inactive).

For `O=C(O)c1cccc(COc2ccccc2Cl)c1`, the IC50 is 6.05 µM (inactive).

As to `Cc1cc(/C=N/n2cnnc2)c(C)n1-c1ccc(OCc2ccc(Cl)cc2)cc1`, the IC50 is 0.38 µM.

Consider `C=C(C)COc1ccc(-c2n[nH]c(C)c2Oc2ccccc2OC)c(O)c1`, for which the IC50 is 8.82 µM (inactive).

Take `CCCC(=O)OCCNc1cc(Sc2nc3ccccc3[nH]2)c2nonc2c1[N+](=O)[O-]`: the IC50 is 5.35 µM (inactive).

Regarding `Cc1ccc2c(C)nc(Nc3nc(CSc4nc5ccccc5[nH]4)cc(=O)[nH]3)nc2c1`, the IC50 was 3.8 µM (inactive).

`CCOc1cc(CNc2ccc(O)cc2)ccc1OCc1ccc(Cl)cc1Cl`: the IC50 was 1.72 µM.

Consider `COc1cc(N(C(=O)Cc2cccs2)C(C(=O)NC2CCCCC2)c2ccc(C)cc2)ccc1-n1cnnn1` (stereo not given), for which the IC50 is 9.94 µM (inactive).

For `CNc1ccc2oc(C[C@H]3O[C@@]4(CC[C@H]3C)O[C@H]([C@H](C)C(=O)c3ccc[nH]3)[C@H](C)C[C@H]4C)nc2c1C(=O)O`, the IC50 was below 0.16 µM.

As to `COc1ccc(-c2[nH]ncc2N=Nc2cc(C)cc(C)c2)cc1`, the IC50 was 9.27 µM (inactive).

`COc1c(CC=C(C)C)cc(C2CC(=O)c3c(O)cc(O)cc3O2)cc1CC=C(C)C` (stereo not given): the IC50 was > 10 µM (inactive).

As for `CC1=C/C(=N\OS(=O)(=O)c2ccccc2)C(C)=CC1=O`, the IC50 is 0.9 µM.

Regarding `CC(C)COc1ccc(/C(=N/O)c2ccccc2)cc1`, the IC50 was 5.73 µM (inactive).

As for `COc1cccc(C(=O)C(C#N)=C(SC)SC)c1`, the IC50 is > 10 µM (inactive).

As to `CC(/C=N/n1c(C2CCCCC2)n[nH]c1=S)=C\c1ccccc1`, the IC50 is 5.88 µM (inactive).

Consider `CCC1CCc2c(sc(NC(=O)c3ccoc3C)c2C(N)=O)C1` (stereo not given), for which the IC50 was > 10 µM (inactive).

As to `Cc1cc(C(=O)N/N=C/c2ccc(-c3cccc(Cl)c3Cl)o2)n[nH]1`, the IC50 was 5.27 µM (inactive).

Take `COc1ccc(OCc2cccc(C(=O)O)c2)cc1`: the IC50 is 0.87 µM.

Consider `Nc1ccc2c(c1)C(=O)C(=O)c1ccccc1-2`, for which the IC50 is 5.08 µM (inactive).

`COc1cc(-c2nc3ccc4ccccc4c3c3c2CCC3)cc(OC)c1O`: the IC50 is > 10 µM (inactive).

Turning to `CCCCCCn1c(CN2CCN(Cc3ccccc3)CC2)nc2c1c(=O)n(C)c(=O)n2C`, the IC50 was 6.9 µM (inactive).

Turning to `CC(C)(C)C(=O)Nc1ccc(-c2nc3ccccc3c(=O)o2)cc1`, the IC50 is 0.7 µM (inactive).

For `O=[N+]([O-])c1c(NCCCO)cc(Sc2ccc(Cl)cc2)c2nonc12`, the half-inhibitory concentration (IC50) is 4.7 µM.

`Cn1ncc2c(O/N=C(\N)c3ccc(C(C)(C)C)cc3)ncnc21`: the concentration for half-maximal inhibition (IC50) was 4.27 µM.

As for `CC1CCN(S(=O)(=O)c2ccc3c(c2)C(=NO)c2cc(S(=O)(=O)N4CCC(C)CC4)ccc2-3)CC1`, the IC50 is 0.32 µM.

Consider `COC(=O)/C(=C(/F)Sc1cc(C)c(O)c(C)c1)C(F)(F)F`, for which the IC50 is 9.36 µM (inactive).

`O=C(Nc1ccccc1Cl)c1ccccc1Oc1ccc(C(F)(F)F)cc1[N+](=O)[O-]`: the IC50 is 6.53 µM (inactive).

As to `CCOc1ccc(N=Cc2c(O)n(C(C)(C)C)c(=O)[nH]c2=O)cc1`, the IC50 was 9.2 µM (inactive).

As to `COC(=O)[C@]12OC[C@]34C([C@@H](O)[C@@H]1O)[C@]1(C)CC(=O)C(O)=C(C)[C@@H]1C[C@H]3OC(=O)[C@H](O)[C@@H]24` (stereo not given in full), the IC50 was below 0.16 µM.

`CC(C)Cn1c(=O)c2ccccc2n2c(SCC(=O)N3c4ccccc4CC3C)nnc12` (stereo not given): the IC50 was > 10 µM (inactive).

For `CCc1ccc(C(=O)/C=C/c2ccc([N+](=O)[O-])o2)cc1`, the IC50 was 9.75 µM (inactive).

As for `COC(=O)c1ccc2c(c1)C(C)(C)C(/C=C/c1ccc(O)cc1)=[N+]2C`, the IC50 was > 10 µM (inactive).

As to `COc1cc(/C=N/NC(=O)Nc2ccccc2)ccc1OCCOc1ccccc1C`, the IC50 was 9.34 µM (inactive).

Turning to `Cc1cc(C)n(-c2nc(N(c3ccccc3)c3ccccc3)nc(-n3nc(C)cc3C)n2)n1`, the IC50 is 9.34 µM (inactive).

On to `O=C(O)c1ccc(N/N=C/c2ccc3nccnc3c2)cc1`, for which the IC50 was 6.06 µM (inactive).

With `Cc1ccc2nc(NC(=O)CSCC(=O)OCC(=O)c3ccc(Br)cc3)sc2c1`, the IC50 is 5.35 µM (inactive).

In the case of `C[C@H](NC(=O)c1nc[nH]c1C(=O)N[C@@H](Cc1ccccc1)C(=O)OC(C)(C)C)C(=O)OC(C)(C)C`, the IC50 was 5.25 µM (inactive).

With `Cc1cc(C2(c3ccc(O)c(C)c3)C(=O)Nc3ccccc32)ccc1O`, the IC50 was > 10 µM (inactive).

On to `CCc1ccc(OCC(=O)NC(NC(=S)Nc2ccc(C)cc2C)C(Cl)(Cl)Cl)cc1` (stereo not given), for which the IC50 is 8.46 µM (inactive).

On to `CCCCc1c(C)nn(-c2nnc3c4ccccc4n(CC)c3n2)c1C`, for which the IC50 was 9.73 µM (inactive).

For the molecule `COc1ccc2nc(Nc3nc(CSc4nc5ccccc5[nH]4)cc(=O)[nH]3)nc(C)c2c1`, the IC50 is 2.33 µM (inactive).

For `Cc1cc(Cl)n2c(nc3cc(F)c(F)cc32)c1C#N`, the IC50 is > 10 µM (inactive).

As for `FC(F)(F)c1cccc(CN2CCC(c3cc(-c4cccs4)n[nH]3)CC2)c1`, the IC50 is 9.4 µM (inactive).

As to `CCCCCCn1c(SCCC)nc2c1c(=O)[nH]c(=O)n2C`, the IC50 is 5.41 µM.

`Cc1ccc(N=C2SC(C(=O)Nc3ccc(OC(F)(F)F)cc3)C(N)=C2C(=O)Nc2c(C)cc(C)cc2C)cc1` (stereo not given): the IC50 was > 10 µM (inactive).

In the case of `O=C1CC(c2ccccc2Cl)CC(O)=C1C=Nc1ccccc1` (stereo not given), the IC50 is 6.54 µM (inactive).

As for `CCN1/C(=C/C(C)=C/c2sc3ccccc3[n+]2CC)Sc2ccccc21`, the 50% inhibitory concentration (IC50) was below 0.16 µM.
